Several values for one entry are separate records, joined by “and”; a condition that tells them apart may be missing. Identical values can stand only once.
Experiments:
honey bees [1] = settings: cited from earlier work; for intoxication symptoms to honey bees: under certain test conditions, Minnesota Department of Agriculture website
honey bees [2] = assay: Adult Honeybee Atoxicity Assays (mortality cages)
Experimental: In all instances, isocaloric sugar feed solutions were used (all honey bees were exposed to feed of equivalent sugar concentration). Both sets of experiments also tested the safety of methanol as a solvent for carrying the chlorantraniliprole. Mortality cages used approximately 20-50 bees per cage replicated across numerous colonies. Each cage was treated with one experimental dose of feed. Each colony donates a cage of bees to each dose in a full factorial experiment in line with tests used for EPA evaluation. Mortality was recorded at 24 hours and 48 hours.
Treatments included chlorantraniliprole concentrations of: 0 (w/methanol), 0 (w/o methanol), 0 (positive dimethoate control), 5, 15, 65, 250 μg/mL.

bumblebee colony = settings: in vivo; cited from earlier work
adult carabid beetles = settings: Larson et al., Pest Manag. Sci. 2012; cited from earlier work
small hive beetle (SHB) = assay: Field Assay: SHB infestation of pollen supplement patties in hives; type: in vivo, Aethina tumida; settings: approximately 10 μg chlorantraniliprole per 1 g protein feed
Experimental: FIG. 2 is a bar graph of the experimental results from FIG. 1, showing the infestation rates of protein substitute mixed with concentrated solution of chlorantraniliprole, methanol, and glycerol according to trial instructions compared to untreated/control supplementary feed. Instructions achieved approximately 10 μg chlorantraniliprole per 1 g protein feed. Briefly, chlorantraniliprole was dissolved in methanol at a ratio of 1 mg chlorantraniliprole to 1 ml methanol via agitation/stirring. Chlorantraniliprole-methanol solution was cooled to −20° C. and then suspended/mixed into glycerol also cooled to −20° C. and stored between 4° C. and −20° C. to create a shelf-stable product. Product was then mixed into lethal attractant/supplementary feed at a rate of 50 ml formulated product per 1 kg feed or attractant via either mechanical or hand mixing at ambient temperature (200 ml of 80% glycerol/20% methanol was added to 4 kg of protein feed (i.e., 40 ml glycerol and 10 ml methanol per 1 kg protein feed). Treated attractant/feed mixture was then ready for deployment in the honey colony.
Pollen supplement was weighed out into two masses, each approximately 4 kg. To create the control pollen supplement patties, 200 ml of 80% glycerol, 20% methanol by volume solution was added to the pollen supplement mass. […]

small hive beetle adults = assay: SHB Adult Exposure Toxicity Assay (contact); type: in vivo, Aethina tumida
Experimental: Testing on chlorantraniliprole contact effectiveness was also conducted on small hive beetle adults. Each plate in which small hive beetles were placed contained an approximately 1 in×1 in square of absorbent shop towel located in the middle of the pot, soaked with solution via pipette. Tests included a methanol-negative (1:1 sugar to water/w) control group with 6 plates of 8 individuals, a methanol-positive (1:1 sugar to water/w solution with methanol then added in to be 1/6 of volume) control group with 7 plates of 8 individuals, a 5 μg treatment group (same as methanol-positive control with 5 μg a.i. added) with 7 plates of 8 individuals, and a 10 μg group (same as methanol-positive control with 10 μg a.i. added) with 7 plates of 8 individuals. Numbers of live beetles were tallied at the end of the test period.

adult small hive beetles = assay: SHB Adult Feed Toxicity and Reproduction Assay; type: in vivo, Aethina tumida
Experimental: In-feed testing with adult small hive beetles was done with small hive beetle adults taken from colonies in the field and individuals reared in-lab. Adults from the field and in-lab were given three days to acclimate together in a large container with feed (2 parts pollen supplement; 1 part pollen; 1/2 part honey) in an incubator at 30 C. Simultaneously, 50 mg of Chlorantraniliprole was suspended in 50 mL (1.25 g/mL) glycerol, which was then mixed into 100 g feed, resulting in a concentration of 0.3 mg Chlorantraniliprole per 1 gram feed. A concentration of 100 μg of active ingredient per 1 gram feed was then achieved via dilution with feed and glycerol solution. Using serial dilution, feeds with varying concentrations of active ingredient were mixed, producing feeds with 100 μg, 10 μg, 1 μg, 0 μg (control) active ingredient per 1 g feed. Following the acclimation period, approximately 10 adult small hive beetles (some pots contained more than 10 individuals, but no more than 12) were randomly assigned to 32 pots, with 8 pots randomly assigned to each treatment (100 μg, 10 μg, 1 μg, 0 μg Chlorantraniliprole). Mortality and reproduction were then monitored at 4, 6, 18 and 34 days.

[3] = 10 μg/g chlorantraniliprole in feed
[4] = 100 μg/g chlorantraniliprole in feed

SMILES | intoxication symptoms to honey bees (honey bees [1]) | toxicity of the solvent to honey bees (honey bees [2]; methanol in sugar feed (30% by volume in set one) versus no methanol) | effects on bumblebee colony growth or mortality (bumblebee colony) | in-field toxicity to adult carabid beetles (adult carabid beetles) | SHB infestation of patties in the five day field trial period (small hive beetle (SHB); 5 days in hives) | SHB infestation of supplementary food after two weeks of incubation to hatch eggs (small hive beetle (SHB); 5 days in hives then 14 days at 30 C) | LD50 to Apis mellifera (EPA 2008) (honey bees [1]; EPA registration documentation as a lawn-treatment) | oral toxicity (LD50) for bees, EPA Data (honey bees [1]; oral) | fold less toxic than clothianidin to Apis mellifera (honey bees [1]; versus a comparable neonicotinoid, clothianidin) | sublethal effect observed in honeybees (honey bees [2]; 250 μg/mL, the very highest dose) | adult bee mortality at effective control concentrations (honey bees [2]; USDA-standard laboratory trials, FIG. 4) | honey bee mortality in relation to dose (honey bees [2]; set one 1.25-10 μg/mL, set two 5-250 μg/mL in sugar feed, 24 hours and 48 hours) | mortality of adult small hive beetles via contact exposure (small hive beetle adults; 5 μg and 10 μg a.i. on soaked shop towel in sugar water/methanol) | survival of adult small hive beetles (small hive beetle adults; 5 μg and 10 μg a.i., contact exposure, end of test period) | SHB larvae observed (reproduction) (adult small hive beetles; 1 μg/g chlorantraniliprole in feed) | SHB larvae observed (reproduction) (adult small hive beetles; [3]) | mortality of adult small hive beetles (adult small hive beetles; [3]) | SHB larvae observed (reproduction) (adult small hive beetles; [4]) | time of exposure by which all adult small hive beetles were dead (adult small hive beetles; [4])
Cc1cc(C(F)(C(F)(F)F)C(F)(F)F)ccc1NC(=O)c1cccc(I)c1C(=O)NC(C)(C)CS(C)(=O)=O [flubendiamide] | little or no intoxication symptoms |  |  |  |  |  |  |  |  |  |  |  |  |  |  |  |  |  | 
CO [methanol] |  | No evidence of any toxicity |  |  |  |  |  |  |  |  |  |  |  |  |  |  |  |  | 
CNC(=O)c1cc(Cl)cc(C)c1NC(=O)c1cc(Br)nn1-c1ncccc1Cl [chlorantraniliprole] | little or no intoxication symptoms |  | no detectable negative effects | no evidence of apparent in-field toxicity | remained free of SHB infestation | remained SHB-infestation free and 10/10 | > 0.1 mg/bee | exceeds 100 μg a.i. per bee | more than 2000 × | Sublethal lethargy | no adult bee mortality | no significant increase in honey bee mortality | no evidence of elevated mortality | all adult small hive beetles survived the experiment | few larvae were observed but subsequently died while still in their first or second instars | No evidence of any larvael SHB | Elevated mortality | No evidence of any larvael SHB | ≤ 6 days

Source: patent US20250160328A1, “COMPOSITIONS AND METHODS FOR REDUCING PARASITIC INFESTATION OF HONEY BEE HIVES” (University of Georgia Research Foundation, Inc., priority 2022, published 2025)
